# Measured values taken from patent US6806230B1, “Pyrimidine derivatives and herbicides containing them” (Kumiai Chemical Industry Co., Ltd., priority 1999, dated 2004).
# Tests used:
# Format in all cases: in vivo
# monochoria (Mo) [1] = experiment: Test Example 1: herbicidal effects by flooded paddy field treatment; design: herbicidal effects, Mo (monochoria):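 0-5 growth inhibition grade; 5 = over 90%; 4 = 70-90%; 3 = 50-70%; 2 = 30-50%; 1 = 10-30%; 0 = under 10%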; settings: dose 100 g active ingredient per 10 ares, examined on the 21st day after treatment, standards of Table 44
# Summary of the method: (§1)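 Flooded paddy pre-emergence test: sowing into puddled soil under 3 cm water, then dropwise water-surface treatment the following day with diluted wettable powder at 100 g active ingredient per 10 ares. Greenhouse cultivation followed, and weeds were rated against a standard scale at 21 days.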
# barnyard grass (Eo) [2] = experiment: as above; design: herbicidal effects, Eo (barnyard grass):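 0-5 growth inhibition grade; 5 = over 90%; 4 = 70-90%; 3 = 50-70%; 2 = 30-50%; 1 = 10-30%; 0 = under 10%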; settings: dose 100 g active ingredient per 10 ares, examined on the 21st day after treatment, standards of Table 44
# Summary of the method: as §1
# barnyard grass (Eo) [3] = experiment: Test Example 4: selectivity for a crop plant by flooded paddy field treatment; design: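 0-5 growth inhibition grade; 5 = over 90%; 4 = 70-90%; 3 = 50-70%; 2 = 30-50%; 1 = 10-30%; 0 = under 10%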; settings: barnyard grass, dose 25 gai/10a, 21st day after treatment, index per Table 44
# Method: (§2) In a 100 cm^2 plastic pot, a paddy field soil was filled and paddled. Then, seeds of barnyard grass (Eo) and monochoria (Mo) were sown, and rice (Or) of second leaf stage was transplanted, and water was introduced to a depth of 3 cm. Next day, a wettable powder prepared in accordance with Formulation Example 1 was diluted with water and dropwise applied to the water surface. The dose was 25 g of the active ingredient per 10 ares. Thereafter, cultivation was carried out in a green house, and on the 21st day after the treatment, the herbicidal effects were examined in accordance with the standards of Table 44.
# rice (Or) = experiment: as above; design: scale not given here; settings: rice transplanted at second leaf stage, dose 25 gai/10a, 21st day after treatment, index per Table 44
# Method: as §2
# monochoria (Mo) [4] = experiment: as above; design: scale not given here; settings: monochoria, dose 25 gai/10a, 21st day after treatment, index per Table 44
# Method: as §2
# barnyard grass (Ec) = experiment: Test Example 2: herbicidal effects by upland soil treatment; design: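 0-5 growth inhibition grade; 5 = over 90%; 4 = 70-90%; 3 = 50-70%; 2 = 30-50%; 1 = 10-30%; 0 = under 10%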; settings: dose 100 g active ingredient per 10 ares, examined on the 21st day after treatment
# Summary of the method: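 Pre-emergence test: barnyard grass and green foxtail sown in upland soil, then soil surface sprayed with wettable-powder formulation at 100 g active ingredient per 10 ares (100 l per 10 ares). Grown in greenhouse; herbicidal effect scored on a rating scale 21 days after treatment.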
SMILES,"herbicidal effects, Mo (monochoria) (monochoria (Mo) [1])","herbicidal effects, Eo (barnyard grass) (barnyard grass (Eo) [2])",Eo (herbicidal effect index) (barnyard grass (Eo) [3]),Or (herbicidal effect index on crop) (rice (Or)),Mo (herbicidal effect index) (monochoria (Mo) [4]),"Ec (herbicidal effects, index) (barnyard grass (Ec))"
CCc1ncncc1C(N(C)C(=O)Cc1ccc(C)cc1)C(C)(C)C (racemic) [1-567],5,5,5,1,5,5
CCC(c1cncnc1C(C)(C)C)N(C)C(=O)Cc1ccc(C)cc1 (racemic) [1-573],5,5,5,1,5,5
COC1(C(c2cncnc2C(C)C)N(C)C(=O)Cc2ccc(C)cc2)OCCO1 (racemic) [1-604],5,5,5,1,5,5
C#CCN(C(=O)Cc1ccc(Cl)cc1)C(CCC)c1cncnc1CC (racemic) [1-608],5,5,5,1,5,5
C#CCN(C(=O)Cc1ccc(F)c(F)c1)C(c1cncnc1C(F)(F)F)C(C)C (racemic) [1-614],5,5,5,1,5,5
C#CCN(C(=O)Cc1ccc(C)cc1)C(c1cncnc1C(C)C)C(C)C (racemic) [1-624],5,5,5,1,5,5
C#CCN(C(=O)Cc1ccccc1)C(c1cncnc1CC)C(C)(C)C (racemic) [1-626],5,5,5,1,5,5
C#CCN(C(=O)Cc1ccc(F)cc1)C(c1cncnc1CC)C(C)(C)C (racemic) [1-627],5,5,5,1,5,5
CC(C)C(c1cncnc1C(F)(F)Cl)N(C)C(=O)OCc1ccccc1 (racemic) [1-639],5,5,5,1,4,5
CC(C)C(c1cncnc1C(F)(F)F)N(C)C(=O)Cc1ccc2ccccc2c1 (racemic) [2-1],5,5,5,0,5,5
CC(C)C(c1cncnc1C(F)(F)F)N(C)C(=O)Cc1ccsc1 (racemic) [2-2],5,5,5,1,5,5
CCN(C(=O)Cc1cccs1)C(c1cncnc1C(F)F)C(C)C (racemic) [2-7],5,5,5,1,5,5
CCN(C(=O)Cc1ccsc1)C(c1cncnc1C(F)F)C(C)C (racemic) [2-8],5,5,5,0,5,5
